In US20140309192A1, “MODULATORS OF THE G PROTEIN-COUPLED MAS RECEPTOR AND THE TREATMENT OF DISORDERS RELATED THERETO” (ARENA PHARMACEUTICALS, INC., priority 2011, published 2014):
“Also recorded” adds a separate entry of the source.

Columns and labels:
human Mas receptor [1] = target: T1, human Mas receptor (Homo sapiens, UniProt P04201); test: cAMP Dynamic2 HTRF assay, HEK293 cells stably expressing human Mas receptor; type: cell-based
T1 construct: expressed in transfected cells; host or cells: HEK293 (ATCC CRL-1573)
T1 sequence (P04201 1-325): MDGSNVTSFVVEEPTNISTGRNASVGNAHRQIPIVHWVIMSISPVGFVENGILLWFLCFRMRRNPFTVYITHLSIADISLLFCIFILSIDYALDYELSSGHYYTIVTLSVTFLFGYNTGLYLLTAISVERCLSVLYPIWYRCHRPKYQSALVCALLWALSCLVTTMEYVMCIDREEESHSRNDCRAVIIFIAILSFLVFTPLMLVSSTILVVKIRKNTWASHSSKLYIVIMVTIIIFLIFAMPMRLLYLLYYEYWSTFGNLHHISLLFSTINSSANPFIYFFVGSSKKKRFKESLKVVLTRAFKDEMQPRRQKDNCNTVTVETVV
Method: cAMP accumulation in HEK293 cells stably expressing human or rat Mas receptors was determined by the 384 well cAMP Dynamic2 Homogenous Time-Resolved Fluorescence (HTRF®) assay (CisBio Cat#62AM4PEB) following the manufacturer's protocol. Briefly, cells were plated at 30,000 or 1000 cells per well in 5 μL stimulation buffer (PBS containing 500 μM IBMX and 0.1% bovine serum albumin), 5 μL of Mas compounds diluted in PBS were added to each well and serial diluted cAMP standards were also added to corresponding wells at this step. For detecting […] activities, 10 μM forskolin was included with the compounds for a final concentration of 5 μM at the stimulation step. Following 1 h stimulation at room temperature, d2-labeled cAMP and anti-cAMP cryptate conjugate diluted in detection buffer (included in the kit) were added to cells sequentially at 5 μl per well. The plates were incubated further for 1 h at room temperature. Ratiometic measurements of fluorescence emission at 665 nm and 620 nm were obtained by Pherastar fluorometer (BMG Labtech) and cAMP levels in each well were calculated according to the standard curves on each plate. IC50 values were obtained by fitting data to a nonlinear curve-fitting program (GraphPad Software, Inc., La Jolla Calif.).

human Mas receptor [2] = target: T1, human Mas receptor; test: Ca2+ measurements by FLIPR assay, HEK293 cells stably expressing human Mas receptors; type: cell-based; details: HEK293 cells stably expressing the human Mas receptor
Method: HEK293 cells stably expressing human Mas receptors were monitored for changes in intracellular Ca^2+ using a FLIPR-384 (Molecular Devices, Sunnyvale, Calif.). Cells were seeded into black-walled clear-base 384-well plates at a density of 2×10^4 cells per well and incubated with Hank's Balanced Salt Solution (HBSS) containing 20 mM HEPES pH 7.4, 2 μM Calcium 3 dye (Molecular Devices Corporation, Sunnyvale, Calif.) and 2.5 mM probenecid at 37° C. for 60 min. Cells were washed with HBSS containing 20 mM HEPES, pH 7.4 and 2.5 mM probenecid and the plates were then placed into the FLIPR instrument to monitor cell fluorescence before and after the addition of the agonists at different concentrations.

control HEK293 cells = test: HTRF IP1 assay in control HEK293 cells; type: cell-based; details: IP assay
Source text: Human and rat Mas receptors were either transiently or stably expressed in HEK293 cells. For transient transfections, human or rat Mas in pHM6 vector were transfected into HEK293 cells using Lipofectamine® (Invitrogen #18324-012). HEK293 cells transfected with empty pHM6 vector were used as a control. For generation of stable cell lines, cDNA expression plasmids encoding human or rat Mas genes and the neo^r gene were transfected into HEK293 cells (ATCC# CRL-1573) using Lipofectamine® (Invitrogen) according to the manufacturer's instructions. Stable receptor expressing pools were then generated over 3 weeks by standard techniques in the presence of 500 μg/mL Geneticin® (Gibco). Individual receptor stable pools were dilution cloned using standard techniques and clones were comparatively evaluated in inositol phosphate accumulation assays. Preferred clones were banked and cultured as needed. HEK293 cells were used as controls. The 384 well IP-One HTRF® Assay (Cisbio #62P1APEJ) was performed as described by the manufacturer's protocol. Cells were plated in at 100,000 cells per well in 15 μL DMEM (Gibco #11960) and incubated in a CO2 incubator at 37° C. for 2 h. […] IP1 levels in each well were calculated according to the standard curves on each plate. […]

[3] = system: isolated perfused mouse hearts; test: Ex vivo coronary flow, Langendorff perfused isolated mouse hearts; details: 1 μM
Method: Coronary flow was measured in male Mas^−/− and Mas^+/+ mice, and in male Sprague-Dawley rats using Langendorff perfused isolated hearts. Freshly isolated hearts were placed on a Langendorff apparatus (Harvard Apparatus) and perfused at a constant pressure of 80 mmHg with a modified Krebs-Henseleit buffer solution (Sigma K3753) and aerated with 95% oxygen and 5% carbon dioxide, pH 7.35-7.4. The temperature was maintained at 37° C. by surrounding the heart with a water-heated glassware chamber. Coronary flow was measured using a flow measurement system (Harvard Apparatus) which included the transit time flow meter and a flow probe built into an adaptor block located at the perfusate inflow port. Data were recorded continuously using an ISOHEART data acquisition system (Harvard Apparatus). After a 20-min equilibration period, Mas compounds were added to the perfusion buffer reservoir at the desired concentration (agonist AR234960 at 1 μM, or inverse agonist AR244555 at 5 μM) and coronary flow was recorded for 10 min

LPS induced TNFα = test: LPS model for sepsis induction, serum TNFα ELISA in mice; type: in vivo, mouse
Method: Mice were treated intravenously with either 20% DMSO (vehicle), 1, 3 or 10 mg/kg Compound 170 in 20% DMSO. Alternatively animals were treated with 1 mg/kg IB-MECA in 0.1% DMSO as a positive control (n=6 per group). 1 hour after drug treatment, animals received 500 μg of LPS intraperitoneally Animals were bled 75 minutes after LPS treatment and the blood was spun down for serum. An ELISA for mouse TNFα (Invitrogen) was performed on 1:50 diluted samples the following day.

Row | Compound | IC50 (human Mas receptor [1]; cAMP assay with forskolin, read-out: Gi coupling IC50) | forskolin stimulated cAMP levels (Mas-Gi activity) (human Mas receptor [1]; cells stably expressing human or rat Mas receptor, 5 μM forskolin) | intracellular Ca2+ (human Mas receptor [2]) | effects in control HEK293 cells (control HEK293 cells) | coronary flow, Mas knockout (Mas−/−) mouse hearts [3] | coronary flow, Mas+/+ mouse hearts [3] | coronary flow, wild type (Mas+/+) mouse hearts [3] | Suppression of TNFα induction compared with positive control (LPS induced TNFα; 10 mg/kg i.v., IB-MECA 1 mg/kg) | Suppression of TNFα induction (LPS induced TNFα; 1, 3 or 10 mg/kg i.v. 1 hour before 500 μg LPS i.p., serum 75 minutes after LPS)
1 | COc1cc([N+](=O)[O-])ccc1S(=O)(=O)N1CC(CN2CCN(c3ccccn3)CC2)C(c2cccc(F)c2)C1 (stereo not drawn) [AR234960] | 719 ± 12 nM | dose dependent reduction | significant increase | There were detected effects | absent | 64 % of baseline | decreased coronary flow significantly |  | 
2 | NC(=O)[C@H](CO)NCc1ccc(C(=O)Nc2ccc(Cl)cc2N2CCN(CCC(F)(F)F)CC2)c(F)c1F [Compound 170, (S)-4-((1-Amino-3-hydroxy-1-oxopropan-2-ylamino)methyl)-N-(4-chloro-2-(4-(3,3,3-trifluoropropyl)piperazin-1-yl)phenyl)-2,3-difluorobenzamide] |  |  |  |  |  |  |  | not statistically different from the positive control IB-MECA | significant to control treated animals at the 10 and 3 mg/kg dose; also recorded: suppression of TNFα induction
